According to patent US20240408027A1, “HIGH DRUG LOADING POLYMERS” (priority 2021, published 2024):
Each block holds one molecule with its values, some of them ahead of it.

Assay: Drug loading of paclitaxel, etoposide, chloroquine into core library (Example 3)

core composition at loading maximum (polymer:drug 1:1): 90 % B
SMILES: CC(=O)O[C@H]1C(=O)[C@@]2(C)[C@H]([C@H](OC(=O)c3ccccc3)[C@]3(O)C[C@H](OC(=O)[C@H](O)[C@@H](NC(=O)c4ccccc4)c4ccccc4)C(C)=C1C3(C)C)[C@]1(OC(C)=O)CO[C@@H]1C[C@@H]2O [Paclitaxel, paclitaxel]

SMILES: CCN(CC)CCCC(C)Nc1ccnc2cc(Cl)ccc12 (stereo not drawn) [chloroquine]
loading trend with core composition (polymer:drug 1:1): increased loading with increasing H-bonding

LE+LC, fold higher in the absence of H-bonding groups in the core (100% B core): > 2 ×
SMILES: COc1cc([C@@H]2c3cc4c(cc3[C@@H](O[C@@H]3O[C@@H]5CO[C@@H](C)O[C@H]5[C@H](O)[C@H]3O)[C@H]3COC(=O)[C@H]23)OCO4)cc(OC)c1O [etoposide]
